The structures appear in SMILES notation.

The test system of one data set is Phaedon cochleariae. As to the kind of experiment: Phaedon test (PHAECO spray treatment). The data set is classed as in vivo. Particulars: 500 g/ha, sprayed Chinese cabbage leaf discs, larvae, after 7 days; 100 % = all beetle larvae killed. The source says: Phaedon-Test (PHAECO Spritzbehandlung)
(§1) • Lösungsmittel: 78,0 GewichtsteileAceton 1,5 Gewichtsteile Dimethylformamid • Emulgator: 0,5 Gewichtsteile Alkylarylpolyglykolether
(§2) Zur Herstellung einer zweckmäßigen Wirkstoffzubereitung vermischt man 1 Gewichtsteil Wirkstoff mit den angegebenen Mengen Lösungsmittel und Emulgator und verdünnt das Konzentrat mit emulgatorhaltigem Wasser auf die gewünschte Konzentration.
Chinakohlblattscheiben (Brassica pekinensis) werden mit einer Wirkstoffzubereitung der gewünschten Konzentration gespritzt und nach dem Abtrocknen mit Larven des Meerrettichblattkäfers (Phaedon cochleariae) besetzt.
Nach 7 Tagen wird die Wirkung in % bestimmt. Dabei bedeutet 100 %, dass alle Käferlarven abgetötet wurden; 0 % bedeutet, dass keine Käferlarven abgetötet wurden.

A further data set has as its system Spodoptera frugiperda. The experiment in a line: Spodoptera frugiperda test (SPODFR spray treatment). The class given is in vivo. As to conditions: 500 g/ha, sprayed maize leaf discs, caterpillars, after 7 days; 100 % = all caterpillars killed.
Excerpt: Spodoptera frugiperda-Test (SPODFR Spritzbehandlung)
as §1, §2
Maisblattscheiben (Zea mays) werden mit einer Wirkstoffzubereitung der gewünschten Konzentration gespritzt und nach dem Abtrocknen mit Raupen des Heerwurms (Spodoptera frugiperda) besetzt.Nach 7 Tagen wird die Wirkung in % bestimmt. Dabei bedeutet 100 %, dass alle Raupen abgetötet wurden; 0 % bedeutet, dass keine Raupe abgetötet wurde.

A further data set relates to Tetranychus urticae. The class given is in vivo. Particulars: foliar, 500 g/ha, 144 h.
Excerpt: Tetranychus-Test, OP-resistent (TETRUR Spritzbehandlung)
as §1, §2
Bohnenblattscheiben (Phaseolus vulgaris), die von allen Stadien der Gemeinen Spinnmilbe (Tetranychus urticae) befallen sind, werden mit einer Wirkstoffzubereitung der gewünschten Konzentration gespritzt.
Nach 6 Tagen wird die Wirkung in % bestimmt. Dabei bedeutet 100 %, dass alle Spinnmilben abgetötet wurden; 0 % bedeutet, dass keine Spinnmilben abgetötet wurden.

For `Cn1nc(C(F)(F)C(F)(F)F)c(C(F)(F)F)c1C(=O)Nc1ccc(Cl)c(C(=O)Nc2ccncc2)c1` [Ia-1], the Wirkung in the data set on Phaedon cochleariae was 100%. Further, in “physchem”, the chromatographic logP (as a rule, a lipophilicity value derived from retention on a column) is 1.99.

`Cn1nc(C(F)(F)C(F)(F)F)c(C(F)(F)F)c1C(=O)Nc1ccc(Cl)c(C(=O)Nc2cnccc2Cl)c1` [Ia-4]: the Wirkung in the data set with Phaedon cochleariae was determined as 100%; with Spodoptera frugiperda, 80%. The chromatographic logP in the data set “physchem” is 3.33.

For the molecule `Cn1nc(C(F)(F)C(F)(F)F)c(C(F)(F)F)c1C(=O)Nc1ccc(Cl)c(C(=O)Nc2ccnc(Cl)c2)c1` [Ia-6], the Wirkung in the data set with Phaedon cochleariae was 100%; in the data set on Spodoptera frugiperda it was 100%; in the data set with Tetranychus urticae, 80%. The same molecule gave a chromatographic logP in “physchem” of 3.37.

With `COc1ccc(NC(=O)c2cc(NC(=O)c3c(C(F)(F)F)c(C(F)(F)C(F)(F)F)nn3C)ccc2Cl)cc1` [Ia-12], the Wirkung in the data set with Spodoptera frugiperda is on record as 100%. The chromatographic logP in “physchem” is 3.68.

On to `Cn1nc(C(F)(F)C(F)(F)F)c(C(F)(F)F)c1C(=O)Nc1ccc(Cl)c(C(=O)Nc2cccnc2Cl)c1` [Ia-13], for which the Wirkung is 100% in the data set with Phaedon cochleariae, 100% in the data set with Spodoptera frugiperda and 90% in the data set with Tetranychus urticae. The same molecule displayed a chromatographic logP in the data set “physchem” of 3.73.

`Cn1nc(C(F)(F)C(F)(F)F)c(C(F)(F)F)c1C(=O)Nc1ccc(Cl)c(C(=O)Nc2cccc(Cl)n2)c1` [Ia-19]: the Wirkung in the data set on Phaedon cochleariae, with Spodoptera frugiperda and in the data set with Tetranychus urticae was 100% throughout. The chromatographic logP in the data set “physchem” was found to be 3.94.

Regarding `Cc1cc(F)ccc1NC(=O)c1cc(NC(=O)c2c(C(F)(F)F)c(C(F)(F)C(F)(F)F)nn2C)ccc1Cl` [Ia-23], the Wirkung with Phaedon cochleariae is recorded as 100%; in the data set on Spodoptera frugiperda, 100%; with Tetranychus urticae, 90%. The molecule further registered a chromatographic logP in the data set “physchem” of 4.05.

For the molecule `Cn1nc(C(F)(F)C(F)(F)F)c(C(F)(F)F)c1C(=O)Nc1ccc(Cl)c(C(=O)Nc2ccc(Cl)cn2)c1` [Ia-27], the Wirkung with Phaedon cochleariae and in the data set on Spodoptera frugiperda was 100% throughout. Also, the chromatographic logP in the data set “physchem” amounted to 4.17.

Take `Cc1c(NC(=O)c2cc(NC(=O)c3c(C(F)(F)F)c(C(F)(F)C(F)(F)F)nn3C)ccc2Cl)ccc(F)c1Cl` [Ia-33]: the Wirkung amounted to 100% with Phaedon cochleariae, 100% in the data set with Spodoptera frugiperda and 90% in the data set with Tetranychus urticae. In “physchem”, this molecule gave a chromatographic logP of 4.34.

As to `Cn1nc(C(F)(F)C(F)(F)F)c(Br)c1C(=O)Nc1ccc(Cl)c(C(=O)Nc2ccc(Cl)cn2)c1` [Ia-35], the Wirkung in the data set on Phaedon cochleariae is 100%; in the data set with Spodoptera frugiperda, 80%.

`Cn1nc(C(F)(F)C(F)(F)F)c(C(F)(F)F)c1C(=O)Nc1ccc(Cl)c(C(=O)Nc2cccc(C(F)(F)F)c2)c1` [Ia-37]: the Wirkung in the data set with Phaedon cochleariae and with Spodoptera frugiperda was 100% throughout. Also, the chromatographic logP in the data set “physchem” was 4.4.

Turning to `Cn1nc(C(F)(F)C(F)(F)F)c(C(F)(F)F)c1C(=O)Nc1ccc(Cl)c(C(=O)Nc2ccc(F)c(C(F)(F)F)c2)c1` [Ia-39], the Wirkung in the data set on Phaedon cochleariae and in the data set on Spodoptera frugiperda was 100% in each case. Also, in “physchem”, the chromatographic logP was 4.51.

In the case of `Cc1cc(NC(=O)c2cc(NC(=O)c3c(C(F)(F)F)c(C(F)(F)C(F)(F)F)nn3C)ccc2Cl)c(Cl)cc1F` [Ia-41], in the data set with Phaedon cochleariae, the Wirkung was determined as 100%. The chromatographic logP in the data set “physchem” is 4.64.

For the molecule `Cn1nc(C(F)(F)C(F)(F)F)c(C(F)(F)F)c1C(=O)Nc1ccc(Cl)c(C(=O)Nc2ccc(Cl)c(Cl)c2)c1` [Ia-42, N-{4-Chlor-3-[(3,4-dichlorphenyl)carbamoyl]phenyl}-1-methyl-3-(pentafluorethyl)-4-(trifluormethyl)-1H-pyrazol-5-carboxamid], the Wirkung with Phaedon cochleariae and in the data set on Spodoptera frugiperda was 100% each time. In addition, the chromatographic logP in “physchem” was 4.65.

With `Cn1nc(C(F)(F)C(F)(F)F)c(C(F)(F)F)c1C(=O)Nc1ccc(Cl)c(C(=O)Nc2cc(Cl)c(Cl)c(Cl)c2)c1` [Ia-44], the Wirkung in the data set with Phaedon cochleariae and with Spodoptera frugiperda was 100% each time. Moreover, the chromatographic logP in “physchem” was 5.15.
